melting point: 168 to 170 °C
SMILES: NC1=NC(C23CC4CC(CC(C4)C2)C3)N(c2ccc(Cl)cc2)C(N)=N1 (stereo not shown) [Example free base, 4,6-Diamino-1,2-dihydro-1-(4-chlorophenyl)-2-(1-tricyclo[3.3.1.1^3,7]decyl)-1,3,5-triazine]
